Source: US9833463B2, “Sitagliptin tannate complex” (MERCK SHARP & DOHME CORP., priority 2014, dated 2017)

Format: physicochemical
Method: The dissolution profile of the sitagliptin tannate complexes of Example 1 and 2 using simulated saliva fluid (SSF) and simulated gastric fluid (SGF) by using the following two stage dissolution protocol:
Stage 1: A sample of sitagliptin tannate complex of Example 1 or 2 was placed in 10 mL of SSF, which was prepared by dissolving 8.0 g of NaCl, 0.19 g of potassium phosphate monobasic, and 2.38 g of sodium phosphate dibasic in 1 L of water, and adjusting to pH 6.8 with phosphoric acid, heated to 37° C., for 1 minute and an aliquot was removed.
Stage 2: The remaining solution transferred to 500 mL of SGF, which was prepared by dissolving 2.0 g of NaCl in 1 L of water, and adding 1.4 mL of concentrated hydrochloric acid. The SGF was stirred at 37° C. with apparatus 2 (paddles), and aliquots were collected at 6 time-points.
The aliquots were then analyzed by HPLC to determine the amount of free sitagliptin.

sitagliptin tannate complex
solubility of the complex at neutral pH: not soluble or almost not soluble | release in acidic pH (acidic pH, such as that found in the stomach): immediate release | release rate at neutral pH (neutral pH, such as that found in the mouth): negligible release rate

sitagliptin tannate complex [Example 2]
sitagliptin release from the complex in SGF (stage 2) (simulated gastric fluid (low pH), 37° C., apparatus 2 (paddles), 6 time-points, FIG. 1 / FIG. 2): rapidly released | sitagliptin released from the complex in SSF (stage 1) (simulated saliva fluid pH 6.8, 37° C., 1 minute, FIG. 1 / FIG. 2): very little to no sitagliptin was released
